{
  "source": "paper PMC9530963",
  "about": "“A cathelicidin antimicrobial peptide from Hydrophis cyanocinctus inhibits Zika virus infection by downregulating expression of a viral entry factor” (The Journal of Biological Chemistry, 2022)",
  "key": {"AXL": {"system": "AXL", "test": "AXL level in Vero cells (Western blot, immunofluorescence)", "assay_type": "cell-based, Chlorocebus aethiops", "experimental": "Figure 3 Hc-CATH downregulates AXL in Vero cell.A, schematic diagram of B and C. B, Vero cells were seeded in 24-well plates (5 × 10^4 cells/well) and cultured in DMEM containing 2% FBS. Hc-CATH (1.25, 2.5, and 5 μM), AC5 (2.5 μM), LL-37 (2.5 μM), or same volume of PBS (peptide solvent) was added to cells. After culture at 37 °C for 6, 12, and 24 h, the levels of ZIKV entry factors, including AXL, TYRO3, and TIM-1, were tested by Western blot, respectively. C, Vero cells were seeded in 8-well cover slip chambers (5 × 10^4 cells/well) and cultured in DMEM containing 2% FBS. Hc-CATH (1.25, 2.5, and 5 μM), AC5 (2.5 μM), LL-37 (2.5 μM), or same volume of PBS (peptide solvent) was added to cells. After culture at 37 °C for 24 h, the level of AXL was tested by immunofluorescence staining. The scale bar represents 50 μm. D, schematic diagram of E. E, Vero cells were seeded in 24-well plates (5 × 10^4 cells/well) and cultured in DMEM containing 2% FBS. Hc-CATH (1.25, 2.5, and 5 μM), AC5 (2.5 μM), LL-37 (2.5 μM), or same volume of PBS (peptide solvent) was added to cells and incubated at 37 °C for 2 h. […] Ratio of AXL to β-actin was analyzed by ImageJ.\nVero cells were incubated with Hc-CATH (1.25, 2.5, and 5 μM), AC5 (2.5 μM), LL-37 (2.5 μM), or PBS (solvent of peptide). […] The levels of ZIKV entry factors, including AXL, TYRO3, and TIM-1, were detected by WB analysis. […]"}, "ZIKV": {"system": "ZIKV", "test": "Direct inactivation of ZIKV particles (virus pre-incubated with peptide)", "assay_type": "cell-based, ZIKV strain PRVABC59", "settings": "ZIKV incubated with 2.5 μM peptide at 37 °C for 2 h, pelleted, added to Vero cells, 48 h; RNA, NS3, E protein, titer", "experimental": "Figure 8 Hc-CATH directly inactivates ZIKV particles by disrupting viral membrane.A, schematic diagram of B–G (Hc-CATH-Vero-pre). B–G, direct inactivation of ZIKV by Hc-CATH. ZIKVs (MOI = 1) were incubated with Hc-CATH (2.5 μM), AC5 (2.5 μM), LL-37 (2.5 μM), or PBS (peptide solvent) at 37 °C for 2 h, and then the ZIKV–PBS mixture and ZIKV–peptide mixture were centrifugated at 100,000g for 70 min. The pellets were washed with PBS and centrifugated at 100,000g for 70 min again. The pellets were resuspended in PBS, added to Vero cells, and incubated for 2 h. Cells were washed with PBS and cultured in fresh DMEM containing 2% FBS. After culture at 37 °C for 48 h, the intracellular ZIKV RNA (B), NS3 protein (C and D), E protein level (E, the scale bar represents 50 μm), and extracellular ZIKV titer (F and G) were tested by qPCR, Western blot, immunofluorescence staining, and plaque-forming assay, respectively. H, binding of Hc-CATH to ZIKV. High-affinity binding plates were coated with 0.25 μM of Hc-CATH, BSA, AC5, or LL-37. Then, 1 × 10^6 PFU of ZIKV was added and incubated. […] Absorbance at 450 nm was measured after reactions were stopped using 0.5 M sulfuric acid. […] After the residual RNase was inactivated, the undigested genomic RNA in the intact ZIKV particles was extracted and quantified by testing the genes of PrM, E, and Cap proteins, respectively. ∗∗p < 0.01 and ∗∗∗p < 0.001. […]"}},
  "data": [
    {"sequence": "KFFKRLLKSVRRAVKKFRKKPRLIGLSTLL [Hc-CATH, cathelicidin antimicrobial peptide identified from the sea snake Hydrophis cyanocinctus]", "values": [
      {"measurement": "level of AXL in Vero cells", "setting": "AXL; 1.25, 2.5, and 5 μM, 24 h, confirmed by immunofluorescence, relative to PBS", "result": "reduced the level of AXL"},
      {"measurement": "level of AXL in Vero cells upon ZIKV infection", "setting": "AXL; peptide 2 h, then ZIKV MOI = 1, 24 h post Hc-CATH addition", "result": "decreased the level of AXL"},
      {"measurement": "direct inactivation of ZIKV particles", "setting": "ZIKV", "result": "directly inactivated viral particles"}
    ]}
  ]
}
